Reference: patent publication US20160008339A1, “PSORALEN DERIVATIVES FOR PREVENTING OR TREATING HEART FAILURE OR CARDIAC HYPERTROPHY” (MAX-DELBRUCK-CENTRUM FUR MOLEKULARE MEDIZIN, priority 2012, published 2016)

Columns and labels:
[1] = system: primary neonatal rat cardiomyocytes; assay: Beat frequency of neonatal cardiomyocytes by Fluo-4 calcium measurement; assay type: cell-based; settings: Fluo-4, from 100 bpm
Description: The frequency of contraction could be determined in a similar manner with a calcium sensor (Fluo-4). In a laser-scanning microscope, Fluo-4 was excited with an argon laser (488 nm) and the emission signals were detected and collected at a wavelength of 505 nm. The fluorescence intensity represented the intracellular concentration of calcium ions. Usually, the line-scan mode was used for image recording, and the line-scan images were recorded with a speed of 1.54 or 1.92 ms per line along the longitudinal axis of the cell. After the sequential image recording, a two-dimensional image with 512×100 lines or 512×2000 lines was generated and saved for later analysis.
Additional calcium measurements were performed. […] The fluorescence dye Fluo-4 was added after 20 min. Fluo-4 is a calcium sensor, which is used for investigating the calcium increase in cells. In cardiomyocytes the dye serves for examining the contractility. During contraction and relaxation, the calcium concentrations differ in the cytosol of cardiomyocytes. The fluorescence intensity of Fluo-4 increases with an increasing calcium concentration, and a decreasing calcium concentration will cause reduced fluorescence intensity. A frequency could be calculated from the fluo-4 fluorescence oscillation by a time depended analysis, wherein the fluorescence was measured over a period of two hours. The ground state at the moment before application (black), the period 10 to 30 sec after application (dark grey) and 70 to 110 sec after application (light grey) were evaluated (FIG. 5). Application refers to the adding of PE or adrenaline. […] The statistical analysis was performed according to the method of analysis of variance (ANOVA).

[2] = target: T1, AKAP-Lbc (guanine nucleotide exchange on RhoA) (Homo sapiens, UniProt Q12802); assay: RhoGEF nucleotide exchange assay (GDP against mGTP on RhoA); settings: IC50 (fifty percent inhibition of nucleotide exchange), 15 min
T1 sequence (Q12802 1994-2333): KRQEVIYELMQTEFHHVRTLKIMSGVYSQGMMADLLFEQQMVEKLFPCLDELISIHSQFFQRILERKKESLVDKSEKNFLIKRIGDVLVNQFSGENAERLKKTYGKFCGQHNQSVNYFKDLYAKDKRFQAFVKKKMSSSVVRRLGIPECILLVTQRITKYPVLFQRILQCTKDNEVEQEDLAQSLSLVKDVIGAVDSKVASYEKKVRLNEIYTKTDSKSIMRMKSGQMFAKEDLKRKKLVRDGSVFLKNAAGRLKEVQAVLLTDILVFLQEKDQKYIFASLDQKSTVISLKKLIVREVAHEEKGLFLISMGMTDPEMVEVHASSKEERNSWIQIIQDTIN

[3] = system: primary neonatal rat cardiomyocytes; assay: Beat rate of neonatal cardiomyocytes counted by light microscope; assay type: cell-based; settings: PE 100 μmol/L for six hours, from 100 bpm
Description: For cultivation of primary neonatal rat cardiomyocytes, hearts of two to three days old rats were obtained and quickly stored on ice in ADS buffer (116.4 mM NaCl, 5.4 mM KC, 5.6 mM dextrose, 10.9 mM NaH2PO4, 405.7 μmol/L MgSO4, 20 mM Hepes, pH 7.3). Under sterile conditions, the hearts were cleaned from blood and vessels, cut into small pieces and transferred into falcon tubes. The ADS buffer was exchanged against an enzyme solution (see table below). Within four cycles each with five ml enzyme solution and an enzyme mix comprising collagenase and pancreatin, isolated cells were released from the tissue (12 min at 37° C. in a water bath with approx. 220 rpm).
The supernatant with the isolated cells was collected, transferred in fetal calf serum (FCS, 2.5 ml on ice) and subsequently centrifugated in FCS (100 g for 3 min at 4° C.). The supernatant of the centrifugation was discarded and the pellet was resuspended in 5 ml cold plating medium. After an additional centrifugation, the pellet was resuspended in 15 ml medium, transferred into a dish and incubated for two hours at 37° C. to allow the settling of the fibroblasts. The cardiomyocytes in the supernatant were counted with a Scepter Handheld Automated Cell Counter and transferred in dishes coated with gelatine. On the following day the medium was changed.
The neonatal cardiomyocytes were seeded in 6-well plates with 1.5×10^6 cell per well. The stimulation with 100 μmol/L phenylephrine (PE) was performed for six or twenty four hours at 37° C. Untreated cells served as control. The effect of compound 31413 on the α-adrenergic stimulation of the cardiomyocytes was determined after incubation with the compound for three hours. To do this, the contraction of the cells was counted within a minute and different conditions were compared.
Isolated neonatal cardiomyocytes were used to investigate the relation between AKAP-Lbc induced RhoA activation and the contractility of the heart. After a chronic stimulation of the α1-adreno receptors (AR) with the specific agonist PE for six hours, the beats of the cardiomyocytes were counted over a period of 15 s and a beat rate per minute (bpm) was calculated. An increase of the beat rate of the cardiomyocytes from 100 bpm to 160 beats per minute could be observed. […] The beat rate of neonatal cardiomyocytes was counted with help of a light microscope.

[4] = system: primary neonatal cardiomyocytes (α-sceletal muscle actin mRNA); assay: Hypertrophy marker α-actin 1 mRNA by quantitative real-time PCR; assay type: cell-based, rat; settings: PE 100 μmol/L, 24 hours
Description: Primary neonatal cardiomyocytes were prepared as described above. The cardiomyocytes were stimulated for 24 or 48 hours with 100 μmol/L phenylephrin (PE) or 10 μmol/L isoproterenol (ISO) in absence or presence of 10 μmol/L or 50 μmol/L of compound 31413.
After 24 hours or 48 hour of stimulation, the medium was removed, and every well was washed with 2 ml phosphate buffered saline and fixed with 200 μl TRIzol. The cells were removed from each well and transferred into a 1.5 ml Eppendorf tube, respectively.
For cell breakdown, 40 μl chloroform was added to each Eppendorf tube. The broken cells were centrifuged for 15 min at 1400 g and 4° C. The supernatant containing RNA/DNA was taken, mixed with 100 μl isopropanol and centrifugated for 20 min at 1500 g and 4° C. The supernatant was discarded and the pellet was resuspended in 500 μL ethanol. The RNA from the pellet was purified by chromatography. The concentration of the RNA was determined by NANODROP.
The quantification of the hypertrophy marker α-sceletal muscle actin (α-actin 1) mRNA was performed by quantitative real-time PCR. First, the RNA was transcribed to a cDNA with a SuperScript™III First-Strand Synthesis SuperMix (Invitrogen) and random hexamer primers. The cDNA was amplified in a PCR reaction in an Applied Biosystem StepOne™ Real-Time PCR System. Glycerinealdehydephosphate dehydrogenase and NTC (no template control) was used as controls. All samples were triplicates. The following primers have been used: […]

[5] = system: 3T3 mouse fibroblasts; assay: LPA-induced stress fibre formation, TRITC-phalloidin fluorescence; assay type: cell-based; settings: 3T3 cells, LPA alone (DMSO)
Excerpt: For the initial analysis, 3T3 cells were used to evaluate the cellular effects of the compounds of the present invention. In these cells changes in the cytoskeleton caused by GTPase activation are well observable, because the cells have a G protein coupled receptor for LPA. A stimulation of 3T3 cells with LPA leads to an activation of RhoA and thereby to the formation of fibrillar actin filaments (F-actin, stress fibres). The participation of AKAP-Lbc as an exchange factor for RhoA within the signal transduction via a G protein of the G−12/13 family was shown.
3T3 mouse fibroblasts were seeded on 30 mm cover slips (in 6 well plates) in a cell density of 2×10^5 cells/well. […]
Following that, the cells were washed with phosphate buffer (Dulbecco's Phosphate-Buffered Saline++) and fixed in 2.5% paraformaldehyde in sodium cacodylate buffer (100 mmol/L sodium cacodylate, 100 mmol/L sucrose, pH 7.4) for 15 min. […] For the microscopic investigations, images were taken with two different fluorescence channels. […]
Without LPA stimulation no stress fibres could be identified after addition of DMSO instead of the compounds of the invention (FIG. 2A, a). […] The quantification of the stress fibre formation were performed with the software package ImageJ by the determination of the overall fluorescence of the TRITC-phalloidin. […]

Row | IC50 [2] [µM] | Compound | frequency after stimulation [1] [bpm] | other results
1 | – | CNCC(O)c1ccc(O)c(O)c1 (stereo not shown) [adrenaline, reference compound] | 200 | –
2 | 39.9 | CCCc1cc(=O)oc2cc3occ(-c4ccc(OC)cc4)c3cc12 [Compound 31864, 3-(4-methoxyphenyl)-5-propyl-furo[3,2-g]chromen-7-one] | – | –
3 | – | CNC[C@H](O)c1cccc(O)c1 [PE, phenylephrine, reference compound] | 150 | beat rate of the cardiomyocytes after stimulation [3]: 160 beats per minute; increase in relative amount of α-actin 1 mRNA [4]: threefold increase
4 | 78.9 | CCCCc1cc(=O)oc2cc3occ(-c4ccc(OC)cc4)c3cc12 [Compound 31892, 5-butyl-3-(4-methoxyphenyl)furo[3,2-g]chromen-7-one] | – | –
5 | – | lysophosphatide acid [LPA, reference compound] | – | formation of stress fibres after stimulation [5]: clear formation of stress fibres
